Experimental data published in US12053511B2, “Cystatin C and Cystatin 9 to treat gut inflammation caused by thermal injury” (priority 2016, dated 2024).

Tested on: NDM-1 Kp
Assay: LD90 NDM-1 Kp pneumonia murine model, survival
Type: in vivo, Balb/c mice
Conditions: colistin 20 or 1.25 mg/kg/day, days 4 and 5 PI
Description: To establish the optimal CST route, timing, and dosage regimen against MDR NDM-1 Kp-induced pneumonia, Balb/c mice (n=10-20 mice/gp) were infected with an i.n. LD90 and treated at various times and doses as depicted in Table 1. Doses included i.n. and/or i.p. single rCST9, rCSTC or a combination of rCST9 and rCSTC. Mice that were infected with NDM-1 Kp but were not treated served as controls. rCST treatments by routes, doses, or as a combined therapy were studied to select an optimal regimen.
Evaluate optimal timing and dosage of rCST-9 and/or PEG-rCST9 administration post-infection. Balb/c mice (n=10-20 mice/gp) were intranasally (i.n.) infected with approximately 1.82×10^8 CFU/mouse of Kp 2146 (as established hereinabove) then treated i.n. or i.p. with rCST9, human recombinant cystatin C (rCSTC) or a combination of rCST9 and rCSTC as depicted in Table 1. Kp infected alone served as controls. […] Therefore, as a comparative control to rCST9, the inventors evaluated the effectiveness of rCSTC against pneumonia using the same doses of 50 and/or 500 pg/mouse.
The potential for rCST9/rCSTC treatment to extend the period before successful antibiotic intervention was initiated was determined. For these evaluations, suboptimal doses of colistin were used to determine the extent of protection afforded by rCSTs as well as to minimize side effects/toxicity caused by this antibiotic (n=10 mice/gp). Doses, timing, and route of colistin were chosen based on efficacy studies of colistin in a mouse model of severe, established MDR pneumonia or a very low dose of colistin then adjusted to suboptimal levels for this study. LD90 NDM-1 Kp-challenged mice were treated with the rCST9/rCSTC 3 d i.p. treatment and then given 2 doses of colistin at 20 mg/kg/day or 1.25 mg/kg/day on day 4 and 5 PI.
Mouse model of pneumonia and CST treatments. Eight-week old female Balb/c mice weighing between 21 and 24 grams (Jackson Laboratories) were housed in an Association for Assessment and Accreditation for Laboratory Animal Care (AAALAC)-approved housing facility and permitted to adjust to their environment for 7 d prior to procedures, receiving free access to food and water throughout the study. All procedures were approved by the University of Texas Medical Branch IACUC and performed humanely with minimal suffering. […] One hour PI, mice were administered an i.n. dose of rCST9/rCSTC (50 pg of each) and then, this group of mice was given an i.p. injection of rCST9/rCSTC (500 pg of each) 3 d PI. A parallel group of infected mice received only a single i.p. dose of rCST9/rCSTC, PEG-rCST9/rCSTC (500 pg of each), or PEG-rCST9 (500 pg) alone 3 d PI. NDM-1-Kp infected mice alone or uninfected mice served as controls. Survival was observed up to 15 days post treatment. Additional groups (n=4 mice/group) of infected and CST-treated mice were euthanized at selected time points (24 h, 72 h, 5 and/or 10 d PI) to harvest lungs. Additional groups were treated with i.n. rCSTs (50 pg of each) as described above but they were euthanized at 30 min, 1 h and 3 h to collect lungs for the quantification of lipid peroxidase by-product, known as malondialdehyde (MDA), as described below.
Additional groups of mice (n=15 mice/group) were treated with the optimal CST treatment regimens of an i.n. dose of rCST9/rCSTC (50 pg of each), followed by an i.p. injection of rCST9/rCSTC (500 pg of each) 3 d PI or the single i.p. dose of rCST9/rCSTC (500 pg of each). At 4 d PI, mice were given 2 separate i.p. injections of colistin (JHP Pharmaceuticals, LLC; colistimethate sodium; 20 mg/kg/mouse or 1.25 mg/kg/day) 8 h apart for 2 d.

With colistin [reference compound] the “survival protection compared to rCST monotherapy” value was “neither of the antibiotic doses surpassed protection afforded by the rCST monotherapy”.
